# Assay results from US20240165083A1, “TASIPIMIDINE FORMULATIONS AND USE THEREOF” (ORION CORPORATION, priority 2021, published 2024).
# Assays:
# Format in all cases: in vivo, dog
# dogs = test: Clinical safety in the three clinical field studies in dogs; conditions: 30 μg/kg orally
# Protocol: (§1) Three randomized, double-blind, placebo-controlled, clinical field studies were conducted for evaluating the effectiveness and clinical safety of tasipimidine for the treatment of situational anxiety and fear-based behaviors in dogs triggered by events such as travel, noise, or owner departure. Across all three studies dogs were randomized to receive either 0.03 mg/kg of tasipimidine (n=131) or placebo (n=133) orally at home by the owner. Assessments were made using video (in the case of when left alone or car travel) or by the caretaker present during the fear inducing incident (in the case of noise anxiety). Both were assessed using a numerical rating scale with scores 1-5.
# [1] = system: client-owned dogs with a history of acute anxiety and fear associated with noise due to fireworks; test: Clinical field study in dogs: noise anxiety (fireworks); conditions: 30 μg/kg orally 1-3 times as needed, New Year's Eve
# Protocol: as §1
# The first study was conducted in client-owned dogs with a history of acute anxiety and fear associated with noise due to fireworks. Dogs receive tasipimidine 30 μg/kg or placebo 1-3 times as needed with at least 3 hours between doses during New Year's Eve. The primary efficacy variable was the owner's assessment of the effect of study treatment on the dog's signs of acute anxiety and fear due to fireworks. The assessment was made once at least 2 hours after the last dose or at 1:00 A.M., whichever occurred later.
# [2] = system: client-owned dogs suffering from travel anxiety; test: Clinical field study in dogs: travel anxiety; conditions: single oral dose 30 μg/kg approximately 1 hour before car travel
# Protocol: as §1
# The third study was conducted in client-owned dogs suffering from travel anxiety. Dogs received a single dose of tasipimidine 30 μg/kg or placebo approximately 1 hour before car travel. The primary efficacy variable was the external observer's assessment of signs of anxiety and fear from video recordings. The owner assessed the treatment effect based on the dog's behavior during the first 10 minutes of car travel.
# [3] = system: client-owned dogs suffering from separation anxiety; test: Clinical field study in dogs: separation anxiety; conditions: 30 μg/kg orally 1-3 times a day as needed, 5-7 days a week for 5 weeks
# Protocol: as §1
# The second study was conducted in client-owned dogs suffering from separation anxiety. Dogs received tasipimidine 30 μg/kg or placebo 1-3 times a day as needed 5-7 days a week for 5 weeks. The primary efficacy variable was the owner's assessment of the effect of the study treatment on acute anxiety related to the owner's departure. Dog owners assessed the effect of the study treatment on their dog's signs of separation anxiety from video recordings after returning home. The owner also took into account the signs of the dog's behavior during the separation (e.g., destruction and elimination) that were not visible in the video recording.
structure (smiles),measurement,setting,value
"COc1cccc2c1CCOC2C1=NCCN1 (stereo not shown) [Tasipimidine, 2-(5-methoxyisochroman-1-yl)-4,5-dihydro-1H-imidazole]",marked ataxia or clinical sedation,dogs,did not produce marked ataxia or clinical sedation
same,treatment effect compared with placebo: owner's assessment of signs of acute anxiety and fear due to fireworks,[1],statistically significant treatment effect in favor of tasipimidine
same,treatment effect compared with placebo: external observer's assessment of signs of anxiety and fear from video recordings,[2],statistically significant treatment effect in favor of tasipimidine
same,treatment effect compared with placebo: owner's assessment of acute anxiety related to the owner's departure,[3],statistically significant treatment effect in favor of tasipimidine
